Here are results for 5 compounds from patent publication US20230077290A1, “HEAVY METAL-FREE CALCIUM HYDROXIDE-BASED ACTIVE SUBSTANCE” (KALKFABRIK NETSTAL AG, priority 2016, published 2023).

One data set has as its system Plasmopara viticola. Briefly: Tests against Plasmopara viticola on grapes, dust application before inoculation. The format is in vivo, Plasmopara viticola on Chasselas grapes. Conditions: for % leaf surface with symptoms of infection: average +/- standard deviation; for effect on Plasmopara viticola infection, in words: grapes, dust application, positive control Kocide Opti 0.003%. On the procedure: Tests Against Plasmopara Viticola on Grapes The above-describe samples were tested in an independent plant research institute. The tests were set up as blind tests parallel to the following controls presented below. Study Design: […] For inoculation, the abaxial side of the fully developed leaves of Plasmopara viticola (50,000 spores/mL) were sprayed, and the entire plant was inoculated. Two types of all of the tests were performed: […] Dust application on the dry test plant before inoculation with the pathogen (so-called standard method) […] Dust application on a wet test plant before inoculation with the pathogen. […] Portion of infected leaf surface in percent of the overall leaf surface. The combined “efficacy severity” was then calculated from this in percent. Controls: […]

The conditions of data set [1]: known compounds with very high capacity; cited from earlier work.
[2] abbreviates: Type 1 (dry), study of examples 1 and 2.
Setting [3] is: Type 2 (wet), study of examples 1 and 2.
The mark [4] stands for this setting: Type 1 (dry), study of examples 3 and 4.
Where [5] appears, read: Type 2 (wet), study of examples 3 and 4.

With `[Ca+2].[OH-].[OH-]` [Example 2, Calcium hydroxide], the “% leaf surface with symptoms of infection” value (“% leaf surface with symptoms” below) in the data set on Plasmopara viticola (Type 1 (dry) dust application on dry plant, study of examples 1 and 2) is reported as 50 +/− 22%; with Plasmopara viticola (Type 2 (wet) dust application on wet plant, study of examples 1 and 2) it was 59 +/− 22%. For the same compound, the “% infected leaves” value is 89 +/− 17% in the data set on Plasmopara viticola (setting [2]) and 93 +/− 10% in the data set on Plasmopara viticola (setting [3]). The Efficacy severity in the data set on Plasmopara viticola (setting [2]) amounted to 46.8%; in the data set with Plasmopara viticola (setting [3]), 36.4%. The “effect on Plasmopara viticola infection, in words” value in the data set on Plasmopara viticola was “only a slight reduction of the infection”.
As to `O=C([O-])[O-].[Li+].[Li+]` [Li2CO3], the “acid neutralization capacity bH+” value in data set [1] is on record as 27 mol/kg.
As for `N` [NH3], in data set [1], the “acid neutralization capacity bH+” value is reported as 59 mol/kg.
`[Na+].[OH-]` [NaOH]: the “acid neutralization capacity bH+” value in data set [1] is 25 mol/kg.
For Calcium stearate [Example 4], in the data set with Plasmopara viticola (setting [4]), the Efficacy severity stood at 7.3% and the “% leaf surface with symptoms” value was 62 +/− 20%. Further, the “% infected leaves” value in the data set with Plasmopara viticola (Type 1 (wet) as printed, study of examples 3 and 4) was 93 +/− 10%. Also, in the data set with Plasmopara viticola (setting [5]), the “% infected leaves” value is 91 +/− 10%, the Efficacy severity is reported as 13.3% and the “% leaf surface with symptoms” value is given as 58 +/− 8%. In the data set on Plasmopara viticola, the “effect on Plasmopara viticola infection, in words” value is “inactive”.
